# Experimental data: article PMC8151276, “An Integrated Approach toward NanoBRET Tracers for Analysis of GPCR Ligand Engagement” (Molecules, 2021)
# Key:
# Format in all cases: binding
# [1] = molecular target: T1, EDNRA (Homo sapiens, UniProt P25101); assay: NanoBRET screen HiBiT-EDNRA in HEK293
# T1 construct: purchased Promega (in-house HiBiT-GPCR construct library, NanoBRET)
# T1 sequence (P25101 21-427): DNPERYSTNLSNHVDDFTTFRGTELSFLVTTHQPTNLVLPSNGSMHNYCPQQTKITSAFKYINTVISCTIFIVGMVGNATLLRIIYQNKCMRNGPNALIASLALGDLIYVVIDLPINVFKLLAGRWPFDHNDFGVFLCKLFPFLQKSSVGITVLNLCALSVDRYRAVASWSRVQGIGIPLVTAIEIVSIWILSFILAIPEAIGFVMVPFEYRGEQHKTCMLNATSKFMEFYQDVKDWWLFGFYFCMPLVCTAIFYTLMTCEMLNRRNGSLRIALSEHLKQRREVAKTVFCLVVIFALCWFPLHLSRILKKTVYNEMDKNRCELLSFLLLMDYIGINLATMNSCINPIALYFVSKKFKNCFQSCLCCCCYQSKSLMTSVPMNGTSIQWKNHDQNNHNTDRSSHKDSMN
# Description: (§1) Each tracer candidate was screened across the entire library of HiBiT-GPCR constructs using NanoBRET as the detection modality. As depicted in Figure 4A, the specificity of interactions was evaluated through decrease in BRET due to competitive displacement of a bound tracer by excess parental compound. Each tracer was analyzed for binding to each HiBiT-GPCR fusion in the absence and in the presence of competing parental compound. Briefly, HEK293 cells were transfected with HiBiT-GPCR constructs diluted into promoterless DNA to reduce expression and maximize translocation to the cell surface. Each tracer candidate was then screened at concentrations of 1 μM and 0.1 μM across cells expressing these fusions. Cells were treated for 1.5 h with tracer either alone or in the presence of 20 μM competing parental compound (i.e., control). BRET was measured upon addition of purified LgBiT and subsequent complementation with HiBiT genetically fused to a GPCR. The specificity of interactions was assessed through a decrease in BRET signal due to competitive displacement of the bound tracer. To further gauge the robustness of these interactions, the fold response over the control (i.e., BRETtracer/BRETcontrol) was calculated. We chose a 1.5-fold response, which translates to ≥7-fold signal over noise as the minimal threshold required to score an interaction as positive. […]. Below we highlight the screening results obtained for our exemplary fluorescent tracers based on Clozapine, Amitriptyline and AZD1283.
# (§2) HiBiT-GPCR DNA constructs were diluted in 10 mM Tris pH 8 to a final concentration of 0.01 μg/μL, arrayed in 96-well plates and stored at −20 °C. For transfection, HEK293 cells were suspended in Opti-MEM (without phenol red) supplemented with 2% fetal bovine serum (Seradigm) and 100 units/mL penicillin–streptomycin (Gibco) at a final concentration of 220,000 cells/mL and dispensed into white 96-well plates at 90 μL/well. Subsequent transfections and screens were carried using an Agilent Bravo Automated Liquid Handling Platform. First, the 96-well HiBiT DNA arrays were diluted 25-fold in Opti-MEM (without serum or phenol red) to a final concentration of 0.0004 μg/μL and 20 μL of the diluted DNAs were transferred into new 96-well plates. Next, promoterless carrier DNA (1 μg/μL) was diluted 25-fold (0.04 μg/μL) and then dispensed into the diluted arrays at 20 μL/well. Following brief mixing, Viafect transfection reagent (Promega) diluted 16-fold into Opti-MEM was dispensed into the plates at 40 μL/well. After mixing by pipetting, plates were incubated for 10 min on the pipetting station deck. The DNA-transfection reagent complexes were then added to plates containing cells. To facilitate the screen, 10 μL of DNA-transfection reagent complexes were added in duplicates to the top 4 and bottom 4 rows, resulting in two identical 48-well arrays per plate. Plates with transfected cells were incubated for 18–20 h at 37 °C/5% CO2. A screen of each tracer across the entire library using two different concentrations requires duplicate plates of transfected cells. Depending on the number of tracers being screened, transfections can be scaled up using the same ratios. The next day, for each tracer, four 20× screening solutions in tracer dilution buffer (Promega) were prepared: two duplicates at final concentration of 20 μM and two duplicates at a final concentration of 2 μM. A competing unmodified compound was added to one of each duplicate at a final concentration of 400 μM. The four resulting solutions were diluted 4-fold in Opti-MEM without serum or phenol red to generate 5× solutions (5 µM and 0.5 µM tracer +/− 100 μM competing compound). To screen the library, a BioTek MultiFlo FX liquid dispenser was used to dispense 22.5 µL of tracer solution to the top 4 rows and 22.5 µL tracer + competing compound solution to the 4 bottom rows. Plates were briefly mixed on an orbital shaker and incubated for 1.5 h at room temperature. […]
# [2] = molecular target: T2, OXTR (Homo sapiens, UniProt P30559); assay: NanoBRET screen HiBiT-OXTR in HEK293
# T2 construct: purchased Promega (in-house HiBiT-GPCR construct library, NanoBRET)
# T2 sequence (P30559 1-389): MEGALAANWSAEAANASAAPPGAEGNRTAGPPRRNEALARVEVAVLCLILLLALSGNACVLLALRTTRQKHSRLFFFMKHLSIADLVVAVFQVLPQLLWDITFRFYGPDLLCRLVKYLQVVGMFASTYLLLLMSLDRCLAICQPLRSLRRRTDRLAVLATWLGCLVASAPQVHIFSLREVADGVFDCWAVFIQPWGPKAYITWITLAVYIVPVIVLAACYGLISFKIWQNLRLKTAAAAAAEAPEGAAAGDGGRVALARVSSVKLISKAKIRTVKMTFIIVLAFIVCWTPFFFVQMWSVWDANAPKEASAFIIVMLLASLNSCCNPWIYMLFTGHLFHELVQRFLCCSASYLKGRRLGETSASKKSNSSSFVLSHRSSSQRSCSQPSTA
# Description: as §1, §2
# [3] = molecular target: T3, NPFFR2 (Homo sapiens, UniProt Q9Y5X5); assay: NanoBRET screen HiBiT-NPFFR2 in HEK293
# T3 construct: purchased Promega (in-house HiBiT-GPCR construct library, NanoBRET)
# Description: as §1, §2
# [4] = molecular target: T4, F2RL2 (Homo sapiens, UniProt O00254); assay: NanoBRET screen HiBiT-F2RL2 in HEK293
# T4 construct: purchased Promega (in-house HiBiT-GPCR construct library, NanoBRET)
# T4 sequence (O00254 22-374): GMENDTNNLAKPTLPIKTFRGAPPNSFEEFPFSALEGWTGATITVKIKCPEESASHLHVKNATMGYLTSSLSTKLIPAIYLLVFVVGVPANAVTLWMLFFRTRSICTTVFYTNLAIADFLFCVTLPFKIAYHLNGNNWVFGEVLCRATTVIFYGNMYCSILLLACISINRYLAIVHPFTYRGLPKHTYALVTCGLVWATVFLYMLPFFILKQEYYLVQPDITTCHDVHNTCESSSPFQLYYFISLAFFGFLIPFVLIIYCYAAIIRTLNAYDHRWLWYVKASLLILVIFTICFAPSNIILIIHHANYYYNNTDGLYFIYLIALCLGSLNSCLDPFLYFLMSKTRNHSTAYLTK
# Description: as §1, §2
# [5] = tracer at 0.1μM, listed as amitriptyline-b-2-NB590
# [6] = tracer at 1μM, listed as amitriptyline-b-2-NB590
# T3 sequence (Q9Y5X5 whole entry): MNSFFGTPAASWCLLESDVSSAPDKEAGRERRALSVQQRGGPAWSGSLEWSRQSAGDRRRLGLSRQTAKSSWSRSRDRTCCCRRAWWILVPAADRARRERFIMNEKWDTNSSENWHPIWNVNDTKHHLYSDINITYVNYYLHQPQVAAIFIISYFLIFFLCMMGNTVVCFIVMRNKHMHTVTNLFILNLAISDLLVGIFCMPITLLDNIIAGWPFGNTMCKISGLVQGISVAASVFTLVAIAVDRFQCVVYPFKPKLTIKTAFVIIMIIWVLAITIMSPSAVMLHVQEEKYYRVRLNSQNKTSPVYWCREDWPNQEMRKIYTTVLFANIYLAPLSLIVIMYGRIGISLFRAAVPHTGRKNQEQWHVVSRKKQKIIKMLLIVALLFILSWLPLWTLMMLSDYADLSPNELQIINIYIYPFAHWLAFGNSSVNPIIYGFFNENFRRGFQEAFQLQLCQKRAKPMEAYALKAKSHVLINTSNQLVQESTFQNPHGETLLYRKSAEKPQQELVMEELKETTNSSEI
structure (smiles),measurement,setting,value
CCOC(=O)c1cc(C#N)c(N2CCC(C(=O)NS(=O)(=O)Cc3ccccc3/C=C/C(=O)NCCNC(=O)CCc3ccc4n3[B-](F)(F)[N+]3=C(c5ccc[nH]5)C=CC3=C4)CC2)nc1C [AZD1283-1-NB590],NanoBRET Fold Response,"[1]; EDNRA, 0.1μM",1.01
same,NanoBRET Fold Response,"[1]; EDNRA, 1μM",1.02
same,NanoBRET Fold Response,"[2]; OXTR, 0.1μM",1.07
same,NanoBRET Fold Response,"[2]; OXTR, 1μM",1.07
same,NanoBRET Fold Response,"[3]; NPFFR2, 0.1μM",1.01
same,NanoBRET Fold Response,"[3]; NPFFR2, 1μM",1.15
same,NanoBRET Fold Response,"[4]; F2RL2, 0.1μM",1.01
same,NanoBRET Fold Response,"[4]; F2RL2, 1μM",1.12
N#CN=C(NCCCOc1cccc(CN2CCCCC2)c1)NCCNC(=O)CCOCCOCCOCCOCCNC(=O)CCc1ccc2n1[B-](F)(F)[N+]1=C(c3ccc[nH]3)C=CC1=C2 [Aminopotentidine-2-NB590],NanoBRET Fold Response,"[1]; EDNRA, tracer 0.1μM",1.03
same,NanoBRET Fold Response,"[1]; EDNRA, tracer 1μM",1.04
same,NanoBRET Fold Response,"[2]; OXTR, tracer 0.1μM",1.06
same,NanoBRET Fold Response,"[2]; OXTR, tracer 1μM",1.04
same,NanoBRET Fold Response,"[3]; NPFFR2, tracer 0.1μM",0.98
same,NanoBRET Fold Response,"[3]; NPFFR2, tracer 1μM",1.02
same,NanoBRET Fold Response,"[4]; F2RL2, tracer 0.1μM",0.95
same,NanoBRET Fold Response,"[4]; F2RL2, tracer 1μM",1.02
CN(C)CCC=C1c2ccccc2CCc2ccc(C(=O)NCCNC(=O)CCOCCOCCOCCOCCNC(=O)CCc3ccc4n3[B-](F)(F)[N+]3=C(c5ccc[nH]5)C=CC3=C4)cc21 [Amitriptyline-a-2-NB590],NanoBRET Fold Response,[1]; tracer at 0.1μM,0.99
same,NanoBRET Fold Response,[1]; tracer at 1μM,0.99
same,NanoBRET Fold Response,[2]; tracer at 0.1μM,0.99
same,NanoBRET Fold Response,[2]; tracer at 1μM,1.09
same,NanoBRET Fold Response,[4]; tracer at 0.1μM,1.03
same,NanoBRET Fold Response,[4]; tracer at 1μM,0.99
CN(C)CCC=C1c2ccccc2CCc2ccc(C(=O)NCCNC(=O)CCOCCOCCOCCOCCNC(=O)CCc3ccc4n3[B-](F)(F)[N+]3=C(c5ccc[nH]5)C=CC3=C4)cc21 [Amitriptyline-b-2-NB590],NanoBRET Fold Response,[1]; [5],1.09
same,NanoBRET Fold Response,[1]; [6],0.94
same,NanoBRET Fold Response,[2]; [5],1.08
same,NanoBRET Fold Response,[2]; [6],1.01
same,NanoBRET Fold Response,[3]; tracer at 0.1μM,1.00
same,NanoBRET Fold Response,[3]; tracer at 1μM,1.03
same,NanoBRET Fold Response,[4]; tracer at 0.1μM,1.16
same,NanoBRET Fold Response,[4]; [6],0.92
CN(CCC=C1c2ccccc2CCc2ccccc21)C(=O)CCOCCOCCOCCOCCNC(=O)CCc1ccc2n1[B-](F)(F)[N+]1=C(c3ccc[nH]3)C=CC1=C2 [Amitriptyline-e-2-NB590],NanoBRET Fold Response,[1]; tracer at 1μM,1.05
